# Measured values reported in patent publication US10981908B2, “Aryl hydrocarbon receptor (AHR) modulator compounds” (PHENEX PHARMACEUTICALS AG, priority 2017, dated 2021).
# Biological target: T1, AhR (Homo sapiens, UniProt P35869)
# T1 construct: The HepG2 CYP1A1-Luc cells do express basal luciferase activity that can be increased via potent AhR agonists or decreased via potent AhR antagonists; endogenous in cells
# T1 sequence (P35869 11-848): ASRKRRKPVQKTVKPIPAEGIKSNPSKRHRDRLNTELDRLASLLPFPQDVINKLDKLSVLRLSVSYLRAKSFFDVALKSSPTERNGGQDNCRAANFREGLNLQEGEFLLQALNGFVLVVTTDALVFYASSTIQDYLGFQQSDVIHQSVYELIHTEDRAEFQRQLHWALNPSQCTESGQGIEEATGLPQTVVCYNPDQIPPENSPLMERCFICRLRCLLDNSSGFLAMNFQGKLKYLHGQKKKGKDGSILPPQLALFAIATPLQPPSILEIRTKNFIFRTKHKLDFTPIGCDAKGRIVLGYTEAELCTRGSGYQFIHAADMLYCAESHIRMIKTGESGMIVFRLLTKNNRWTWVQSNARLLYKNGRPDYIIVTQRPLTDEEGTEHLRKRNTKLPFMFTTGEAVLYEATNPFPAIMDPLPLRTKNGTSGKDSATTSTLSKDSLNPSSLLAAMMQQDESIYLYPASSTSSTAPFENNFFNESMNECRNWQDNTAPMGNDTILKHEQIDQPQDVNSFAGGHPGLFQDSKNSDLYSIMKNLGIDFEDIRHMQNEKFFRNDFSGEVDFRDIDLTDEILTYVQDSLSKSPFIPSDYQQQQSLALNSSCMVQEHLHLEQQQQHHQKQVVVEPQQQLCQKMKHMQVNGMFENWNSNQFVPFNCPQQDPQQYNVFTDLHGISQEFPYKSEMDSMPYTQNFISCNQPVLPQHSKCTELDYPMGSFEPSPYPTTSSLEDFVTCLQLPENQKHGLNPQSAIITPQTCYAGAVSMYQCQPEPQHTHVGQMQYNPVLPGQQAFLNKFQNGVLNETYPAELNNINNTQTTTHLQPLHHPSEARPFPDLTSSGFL
# Experiment: AhR direct luciferase reporter assay in HepG2 cells (HepG2 CYP1A1-LUC)
# Assay type: cell-based
# Conditions: luciferase activity after 18 hours, medium with no exogenous AhR agonist or 10 nM VAF347, read-out: AhR potency (AhR antagonistic potency, IC50 class)
# Excerpt: AhR Direct Luciferase Reporter Assay in HepG2 Cells
# A stable cell line (HepG2 CYP1A1-LUC) was used in which part of the promoter region of the human CYP1A1 gene is stably integrated into the genome of human HepG2 hepatocytes (DSZM #ACC 180) in front of a Photinus pyralis Firefly Luciferase gene. A 1210 bp fragment comprising part of the human CYP1A1 promoter was isolated via SacI and BgIII restriction digestion from Lightswitch Clone S714555 (SwitchGearGenomics) and inserted between the SacI and BgIII sites in pGL4.30 (Promega #E8481) in front of the Firefly Luciferase gene. The resulting vector was linearized with NotI, transfected into HepG2 cells (DSMZ #ACC 180) and stably transfected clones selected with 250 μg/ml Hygromycin B. After repetitive rounds of subcloning and testing for robustly regulated luciferase activity after AhR agonist stimulation, a stable clonal HepG2 CYP1A1-Luc cell line was selected.
# The HepG2 CYP1A1-Luc cells do express basal luciferase activity that can be increased via potent AhR agonists or decreased via potent AhR antagonists, added to the growth medium of the cells.
# In typical reporter assays performed with this cell line, cells are grown in 96-well plates and AhR modulators are titrated into the growth medium in serial dilutions in RPMI-1640 Medium (Sigma #R7509) supplemented with 8,6% fetal calf serum (Sigma #F7524) and containing either no exogenous AhR agonist or 10 nM of the potent AhR agonist VAF347 (Calbiochem #182690). Cells are further cultivated for 18 hours and luciferase activities are determined from extracts of cells in buffers containing D-Luciferine and ATvP using a LUMIstar Optima microplate Luminometer from BMG Labtech.
row,SMILES,IC50 [nM]
1,"Cn1ncnc1C(=O)Nc1ccc2cc(-c3cccc4ccccc34)[nH]c2n1 [Example 1/13, 1-Methyl-N-(2-(naphthalen-1-yl)-1H-pyrrolo[2,3-b]pyridin-6-yl)-1H-1,2,4-triazole-5-carboxamide]",< 100
2,"Cn1ncnc1C(=O)Nc1ccc2cc(-c3ccccc3C(F)F)[nH]c2n1 [Example 1/15, N-(2-(2-(Difluoromethyl)phenyl)-1H-pyrrolo[2,3-b]pyridin-6-yl)-1-methyl-1H-1,2,4-triazole-5-carboxamide]",< 100
3,"Cn1ncnc1C(=O)Nc1ccc2cc(-c3cccc4c3CCC4)[nH]c2n1 [Example 1/16, N-(2-(2,3-Dihydro-1H-inden-4-yl)-1H-pyrrolo[2,3-b]pyridin-6-yl)-1-methyl-1H-1,2,4-triazole-5-carboxamide]",< 100
4,"Cn1ncnc1C(=O)Nc1ccc2cc(-c3ncccc3C(F)(F)F)[nH]c2n1 [Example 1/17, 1-Methyl-N-(2-(3-(trifluoromethyl)pyridin-2-yl)-1H-pyrrolo[2,3-b]pyridin-6-yl)-1H-1,2,4-triazole-5-carboxamide]",> 1000
5,"COc1ccccc1-c1cc2ccc(NC(=O)c3ncnn3C)nc2[nH]1 [Example 1/18, N-(2-(2-Methoxyphenyl)-1H-pyrrolo[2,3-b]pyridin-6-yl)-1-methyl-11H-1,2,4-triazole-5-carboxamide]",100 to 1000
6,"Cn1ncnc1C(=O)Nc1ccc2cc(-c3ccccc3S(C)(=O)=O)[nH]c2n1 [Example 1/23, 1-Methyl-N-(2-(2-(methylsulfonyl)phenyl)-1H-pyrrolo[2,3-b]pyridin-6-yl)-1H-1,2,4-triazole-5-carboxamide]",> 1000
7,"Cn1ncnc1C(=O)Nc1ccc2cc(-c3ccc(C(F)F)cc3)[nH]c2n1 [Example 1/25, N-(2-(4-(Difluoromethyl)phenyl)-1H-pyrrolo[2,3-b]pyridin-6-yl)-1-methyl-1H-1,2,4-triazole-5-carboxamide]",< 100
8,"Cn1ncnc1C(=O)Nc1ccc2cc(-c3cc(C4CC4)ccc3C(F)(F)F)[nH]c2n1 [Example 1/27, N-(2-(5-Cyclopropyl-2-(trifluoromethyl)phenyl)-1H-pyrrolo[2,3-b]pyridin-6-yl)-1-methyl-1H-1,2,4-triazole-5-carboxamide]",< 100
9,"Cn1ncnc1C(=O)Nc1ccc2cc(-c3cc(F)c(F)cc3C(F)F)[nH]c2n1 [Example 1/28, N-(2-(2-(Difluoromethyl)-4,5-difluorophenyl)-1H-pyrrolo[2,3-b]pyridin-6-yl)-1-methyl-1H-1,2,4-triazole-5-carboxamide]",< 100
10,"Cn1ncnc1C(=O)Nc1ccc2cc(-c3cc(C(F)(F)F)ccc3C(F)(F)F)[nH]c2n1 [Example 1/30, N-(2-(2,5-Bis(trifluoromethyl)phenyl)-1H-pyrrolo[2,3-b]pyridin-6-yl)-1-methyl-1H-1,2,4-triazole-5-carboxamide]",< 100
11,"Cc1cc2cc(-c3ccccc3C(F)(F)F)[nH]c2nc1NC(=O)c1ncnn1C [Example 1/31, 1-Methyl-N-(5-methyl-2-(2-(trifluoromethyl)phenyl)-1H-pyrrolo[2,3-b]pyridin-6-yl)-1H-1,2,4-triazole-5-carboxamide]",100 to 1000
12,"Cn1ncnc1C(=O)Nc1ccc2cc(-c3ccoc3C(F)F)[nH]c2n1 [Example 1/32, N-(2-(2-(Difluoromethyl)furan-3-yl)-1H-pyrrolo[2,3-b]pyridin-6-yl)-1-methyl-1H-1,2,4-triazole-5-carboxamide]",< 100
13,"Cn1ncnc1C(=O)Nc1ccc2cc(-c3cc(Cl)ccc3C(F)F)[nH]c2n1 [Example 1/34, N-(2-(5-Chloro-2-(difluoromethyl)phenyl)-1H-pyrrolo[2,3-b]pyridin-6-yl)-1-methyl-1H-1,2,4-triazole-5-carboxamide]",< 100
14,"Cc1ccc(C(F)F)c(-c2cc3ccc(NC(=O)c4ncnn4C)nc3[nH]2)c1 [Example 1/35, N-(2-(2-(Difluoromethyl)-5-methylphenyl)-1H-pyrrolo[2,3-b]pyridin-6-yl)-1-methyl-1H-1,2,4-triazole-5-carboxamide]",< 100
15,"Cn1ncnc1C(=O)Nc1ccc2cc(-c3ccccc3C(F)(F)F)n(C)c2n1 [Example 3, 1-Methyl-N-(1-methyl-2-(2-(trifluoromethyl)phenyl)-1H-pyrrolo[2,3-b]pyridin-6-yl)-1H-1,2,4-triazole-5-carboxamide]",100 to 1000
16,"Cn1ncnc1C(=O)Nc1ccc2cc(-c3ccccc3C3CC3)[nH]c2n1 [Example 4, N-(2-(2-Cyclopropylphenyl)-1H-pyrrolo[2,3-b]pyridin-6-yl)-1-methyl-1H-1,2,4-triazole-5-carboxamide]",< 100

# Second part, the compound after the results:
row,IC50 [nM],SMILES
1,< 100,"Cn1ncnc1C(=O)Nc1ccc2cc(-c3cc(F)ccc3C(F)(F)F)[nH]c2n1 [Example 1/12, N-(2-(5-Fluoro-2-(trifluoromethyl)phenyl)-1H-pyrrolo[2,3-b]pyridin-6-yl)-1-methyl-1H-1,2,4-triazole-5-carboxamide]"
2,< 100,"Cn1ncnc1C(=O)Nc1ccc2cc(-c3ccc(F)cc3C(F)(F)F)[nH]c2n1 [Example 1/14, N-(2-(4-Fluoro-2-(trifluoromethyl)phenyl)-1H-pyrrolo[2,3-b]pyridin-6-yl)-1-methyl-1H-1,2,4-triazole-5-carboxamide]"
3,100 to 1000,"O=C(Nc1ccc2cc(-c3ccccc3C(F)(F)F)[nH]c2n1)c1cc2ccoc2cn1 [Example 1/19, N-(2-(2-(Trifluoromethyl)phenyl)-1H-pyrrolo[2,3-b]pyridin-6-yl)furo[2,3-c]pyridine-5-carboxamide]"
4,< 100,"Cc1nonc1C(=O)Nc1ccc2cc(-c3ccccc3C(F)(F)F)[nH]c2n1 [Example 1/20, 4-Methyl-N-(2-(2-(trifluoromethyl)phenyl)-1H-pyrrolo[2,3-b]pyridin-6-yl)-1,2,5-oxadiazole-3-carboxamide]"
5,100 to 1000,"Cn1cnnc1C(=O)Nc1ccc2cc(-c3ccccc3C(F)(F)F)[nH]c2n1 [Example 1/21, 4-Methyl-N-(2-(2-(trifluoromethyl)phenyl)-1H-pyrrolo[2,3-b]pyridin-6-yl)-4H-1,2,4-triazole-3-carboxamide]"
6,< 100,"O=C(Nc1ccc2cc(-c3ccccc3C(F)(F)F)[nH]c2n1)c1ncc2ccccn12 [Example 1/22, N-(2-(2-(trifluoromethyl)phenyl)-1H-pyrrolo[2,3-b]pyridin-6-yl)imidazo[1,5-a]pyridine-3-carboxamide]"
7,< 100,"Cn1ncnc1C(=O)Nc1ccc2cc(-c3cc(Cl)ccc3C(F)(F)F)[nH]c2n1 [Example 1/26, N-(2-(5-Chloro-2-(trifluoromethyl)phenyl)-1H-pyrrolo[2,3-b]pyridin-6-yl)-1-methyl-11H-1,2,4-triazole-5-carboxamide]"
8,< 100,"CCc1ccc(C(F)(F)F)c(-c2cc3ccc(NC(=O)c4ncnn4C)nc3[nH]2)c1 [Example 1/29, N-(2-(5-Ethyl-2-(trifluoromethyl)phenyl)-1H-pyrrolo[2,3-b]pyridin-6-yl)-1-methyl-1H-1,2,4-triazole-5-carboxamide]"
9,< 100,"Cc1ccc(C(F)(F)F)c(-c2cc3ccc(NC(=O)c4ncnn4C)nc3[nH]2)c1 [Example 1/33, 1-Methyl-N-(2-(5-methyl-2-(trifluoromethyl)phenyl)-1H-pyrrolo[2,3-b]pyridin-6-yl)-1H-1,2,4-triazole-5-carboxamide]"
10,100 to 1000,"Cn1nc(C(N)=O)cc1C(=O)Nc1ccc2cc(-c3ccccc3C(F)(F)F)[nH]c2n1 [Example 2, 1-Methyl-n^5-(2-(2-(trifluoromethyl)phenyl)-1H-pyrrolo[2,3-b]pyridin-6-yl)-1H-pyrazole-3,5-dicarboxamide]"
